According to patent US6914045B2, “Glycopeptide antibiotics” (Wyeth Holdings Corporation, priority 2001, dated 2005):
≈ marks a conversion by molar mass, not a printed value.

Tests used:
Assay in all cases: in vitro antibacterial evaluation, MIC by broth dilution
Assay type in all cases: cell-based
[1] = test system: Streptococcus sp.; conditions: broth dilution, 18 hours at 35° C.
Outline: (§1)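 MIC, the lowest antibiotic concentration preventing growth, was read across 64-0.06 μg/mL with 5×10^5 CFU/mL inoculum. Method followed NCCLS M7-A2 broth dilution using Mueller-Hinton II; Gram-positive strains covered recent methicillin-, penicillin- and/or vancomycin-resistant clinical isolates.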

[2] = test system: Staphylococcus sp.; conditions: broth dilution, 18 hours at 35° C.; for MIC Staphylococcus aureus (GC 1131): strain GC 1131
Outline: as §1

[3] = test system: Enterococcus sp.; conditions: broth dilution, 18 hours at 35° C.
Outline: as §1

[4] = test system: Escherichia coli; conditions: 18 hours at 35° C.

MIC Streptococcus agalactiae (GC 4564) [1]: <0.12 µg/mL
MIC Streptococcus pneumoniae (ATCC 6301) [1]: <0.12 µg/mL
MIC Streptococcus pneumoniae (GC 1894) [1]: <0.12 µg/mL
MIC Streptococcus pneumoniae (GC 4565) [1]: <0.12 µg/mL
MIC Streptococcus pyogenes (GC 4563) [1]: <0.12 µg/mL
MIC Streptococcus pneumoniae (ATCC 6301) ([1]; inoculum 5×10^5 CFU/mL, strain ATCC 6301): <0.12 µg/mL
MIC Streptococcus pneumoniae (GC 1894) ([1]; inoculum 5×10^5 CFU/mL, strain GC 1894): <0.12 µg/mL
MIC Streptococcus pyogenes (GC 4563) ([1]; inoculum 5×10^5 CFU/mL, strain GC 4563): <0.12 µg/mL
MIC Streptococcus agalactiae (GC 4564) ([1]; inoculum 5×10^5 CFU/mL, strain GC 4564): <0.12 µg/mL
MIC Streptococcus pneumoniae (GC 4565) ([1]; inoculum 5×10^5 CFU/mL, strain GC 4565): <0.12 µg/mL
MIC Staphylococcus aureus (GC 1131) ([2]; inoculum 5×10^5 CFU/mL): 1 µg/mL (≈ 0.713 µM)
MIC Staphylococcus aureus (ATCC 29213) ([2]; strain ATCC 29213): 0.5 µg/mL (≈ 0.356 µM)
MIC Staphylococcus aureus (GC 1131) [2]: 1 µg/mL (≈ 0.713 µM)
MIC Staphylococcus aureus (GC 3051) ([2]; strain GC 3051): 0.5 µg/mL (≈ 0.356 µM)
MIC Staphylococcus aureus (GC 3053) ([2]; strain GC 3053): 0.5 µg/mL (≈ 0.356 µM)
MIC Staphylococcus aureus (GC 4541) ([2]; strain GC 4541): 0.5 µg/mL (≈ 0.356 µM)
MIC Staphylococcus aureus (GC 4542) ([2]; strain GC 4542): 0.25 µg/mL (≈ 0.178 µM)
MIC Staphylococcus aureus-SMITH (GC 4543) ([2]; strain GC 4543): 0.5 µg/mL (≈ 0.356 µM)
MIC Staphylococcus aureus (GC 4544) ([2]; strain GC 4544): 0.5 µg/mL (≈ 0.356 µM)
MIC Staphylococcus aureus (GC 4545) ([2]; strain GC 4545): 0.5 µg/mL (≈ 0.356 µM)
MIC Coagulase Negative Staphylococcus (GC 4547) ([2]; strain GC 4547): 1 µg/mL (≈ 0.713 µM)
MIC Coagulase Negative Staphylococcus (GC 4548) ([2]; strain GC 4548): <0.12 µg/mL
MIC Coagulase Negative Staphylococcus (GC 4549) ([2]; strain GC 4549): 0.5 µg/mL (≈ 0.356 µM)
MIC Coagulase Negative Staphylococcus (GC 4551) ([2]; strain GC 4551): 0.5 µg/mL (≈ 0.356 µM)
MIC Enterococcus avium (GC 4558) [3]: 1 µg/mL (≈ 0.713 µM)
MIC Enterococcus faecalis (ATCC 29212) [3]: 1 µg/mL (≈ 0.713 µM)
MIC Enterococcus faecalis (GC 2242) [3]: 1 µg/mL (≈ 0.713 µM)
MIC Enterococcus faecalis (GC 2691) [3]: 1 µg/mL (≈ 0.713 µM)
MIC Enterococcus faecalis (GC 3059) [3]: 1 µg/mL (≈ 0.713 µM)
MIC Enterococcus faecalis (GC 4552) [3]: 1 µg/mL (≈ 0.713 µM)
MIC Enterococcus faecalis (GC 4553) [3]: 1 µg/mL (≈ 0.713 µM)
MIC Enterococcus faecalis (GC 4554) [3]: 1 µg/mL (≈ 0.713 µM)
MIC Enterococcus faecalis (GC 6189) [3]: 1 µg/mL (≈ 0.713 µM)
MIC Enterococcus faecium (GC 2243) [3]: 1 µg/mL (≈ 0.713 µM)
MIC Enterococcus faecium (GC 4556) [3]: 1 µg/mL (≈ 0.713 µM)
MIC Enterococcus faecium (GC 4557) [3]: 1 µg/mL (≈ 0.713 µM)
MIC Enterococcus faecalis (ATCC 29212) ([3]; inoculum 5×10^5 CFU/mL, strain ATCC 29212): 1 µg/mL (≈ 0.713 µM)
MIC Enterococcus faecalis (GC 2242) ([3]; inoculum 5×10^5 CFU/mL, strain GC 2242): 1 µg/mL (≈ 0.713 µM)
MIC Enterococcus faecium (GC 2243) ([3]; inoculum 5×10^5 CFU/mL, strain GC 2243): 1 µg/mL (≈ 0.713 µM)
MIC Enterococcus faecalis (GC 2691) ([3]; inoculum 5×10^5 CFU/mL, strain GC 2691): 1 µg/mL (≈ 0.713 µM)
MIC Enterococcus faecalis (GC 3059) ([3]; inoculum 5×10^5 CFU/mL, strain GC 3059): 1 µg/mL (≈ 0.713 µM)
MIC Enterococcus faecalis (GC 4552) ([3]; inoculum 5×10^5 CFU/mL, strain GC 4552): 1 µg/mL (≈ 0.713 µM)
MIC Enterococcus faecalis (GC 4553) ([3]; inoculum 5×10^5 CFU/mL, strain GC 4553): 1 µg/mL (≈ 0.713 µM)
MIC Enterococcus faecalis (GC 4554) ([3]; inoculum 5×10^5 CFU/mL, strain GC 4554): 1 µg/mL (≈ 0.713 µM)
MIC Enterococcus faecium (GC 4556) ([3]; inoculum 5×10^5 CFU/mL, strain GC 4556): 1 µg/mL (≈ 0.713 µM)
MIC Enterococcus faecium (GC 4557) ([3]; inoculum 5×10^5 CFU/mL, strain GC 4557): 1 µg/mL (≈ 0.713 µM)
MIC Enterococcus avium (GC 4558) ([3]; inoculum 5×10^5 CFU/mL, strain GC 4558): 1 µg/mL (≈ 0.713 µM)
MIC Enterococcus faecalis (GC 6189) ([3]; inoculum 5×10^5 CFU/mL, strain GC 6189): 1 µg/mL (≈ 0.713 µM)
MIC Escherichia coli (ATCC 25922) [4]: 32 µg/mL (≈ 22.8 µM)
MIC Escherichia coli (GC 4559) [4]: 32 µg/mL (≈ 22.8 µM)
MIC Escherichia coli (GC 4560) [4]: 1 µg/mL (≈ 0.713 µM)
SMILES: N=C1NCC(C(O)C2NC(=O)C(Cc3ccc(OC4OC(CO)C(OC5OC6COC(CCc7ccccc7)OC6C(O)C5O)C(O)C4O)cc3)NC(=O)C(CC3CCCCC3)NC(=O)CNC(=O)C(CO)NC(=O)C(C(O)C3CNC(=N)N3C3OC(CO)C(O)C(O)C3O)NC2=O)N1 (stereo not shown) [Example 198]
MIC Staphylococcus haemolyticus (GC 4546) ([2]; strain GC 4546): 0.5 µg/mL (≈ 0.356 µM)
